Consider 2 compounds from publication PMC9545129 (Chemmedchem, 2022).

Test [1] concerns LAT1. Conditions: cited from earlier work.
The target in test [2] is LAT1 (SLC7A5) (Homo sapiens, UniProt Q01650). Put plainly: [3H]-L-leucine efflux assay in preloaded HT-29 cells. The class given is cell-based. Conditions: concentration not stated.
LAT1 (SLC7A5), sequence (Q01650 whole entry): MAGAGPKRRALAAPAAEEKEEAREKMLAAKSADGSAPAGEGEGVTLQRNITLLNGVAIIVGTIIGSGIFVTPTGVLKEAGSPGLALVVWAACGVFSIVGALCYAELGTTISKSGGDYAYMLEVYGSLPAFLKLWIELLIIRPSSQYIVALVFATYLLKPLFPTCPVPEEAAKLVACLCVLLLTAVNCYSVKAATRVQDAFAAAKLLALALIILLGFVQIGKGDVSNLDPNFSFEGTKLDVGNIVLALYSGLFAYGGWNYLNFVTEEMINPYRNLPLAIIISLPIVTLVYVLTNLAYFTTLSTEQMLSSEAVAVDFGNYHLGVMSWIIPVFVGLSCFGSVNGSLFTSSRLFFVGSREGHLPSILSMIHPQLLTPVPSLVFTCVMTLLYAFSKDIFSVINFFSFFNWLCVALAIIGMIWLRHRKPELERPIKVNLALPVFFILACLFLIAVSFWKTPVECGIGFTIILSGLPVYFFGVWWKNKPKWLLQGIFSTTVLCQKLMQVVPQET
LAT1 (SLC7A5), sequence (P08195 102-630 partner): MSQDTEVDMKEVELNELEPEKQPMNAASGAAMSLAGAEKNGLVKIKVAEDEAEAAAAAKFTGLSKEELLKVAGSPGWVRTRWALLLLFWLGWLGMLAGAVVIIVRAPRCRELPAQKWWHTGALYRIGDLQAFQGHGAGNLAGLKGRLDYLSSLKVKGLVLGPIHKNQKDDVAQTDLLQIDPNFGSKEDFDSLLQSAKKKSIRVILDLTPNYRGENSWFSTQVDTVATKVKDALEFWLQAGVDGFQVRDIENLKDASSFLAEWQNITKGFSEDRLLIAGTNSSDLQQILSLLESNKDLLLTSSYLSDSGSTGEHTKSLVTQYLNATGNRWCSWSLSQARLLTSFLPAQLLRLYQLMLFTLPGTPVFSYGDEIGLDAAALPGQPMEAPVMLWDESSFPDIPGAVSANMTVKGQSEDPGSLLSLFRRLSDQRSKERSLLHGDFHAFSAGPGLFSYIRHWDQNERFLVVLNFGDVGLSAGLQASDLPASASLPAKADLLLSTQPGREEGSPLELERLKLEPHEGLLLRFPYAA

As for `N[C@@H](Cc1c[nH]c2ccc(OCCF)cc12)C(=O)O` [5‐(2‐fluoroethoxy)‐L‐tryptophan], in test [1], the LAT1 substrate properties result is “exhibit LAT1 substrate properties”.
Turning to `N[C@@H](Cc1c[nH]c2ccccc12)C(=O)O` [L‐Trp, L‐tryptophan], the “[3H]-L-leucine efflux from preloaded HT-29 cells / substrate for LAT1-mediated transport” value in test [2] was “elicited clear [^3H]‐L‐leucine efflux”.
